Structures can show the parent of a compound that is named as a salt.
What was measured:
[1] = tested on: B cells; assay: B cell proliferation assay ([3H]-thymidine incorporation, anti-human IgM stimulation); type: cell-based; settings: 72 h, purified human B cells, goat F(ab')2 anti-human IgM 10 μg/ml, three days plus 12 hrs [3H]-thymidine
Experimental: To acquire B cells, human PBMC were isolated from the peripheral blood of normal, drug free donors by standard density gradient centrifugation on Ficoll-Hypague (GE Healthcare, Piscataway, N.J.) and incubated with anti-CD19 microbeads (Miltenyi Biotech, Auburn, Calif.). The B cells were then purified by positive immunosorting using an autoMacs (Miltenyi Biotech) according to the manufacture's instruction.
The purified B cells (2×10^5/well/200 μL) were cultured in 96-well ultra-low binding plates (Corning, Corning, N.Y.) in RPMI1640, 10% FBS and goat F(ab′)2 anti-human IgM (10 μg/ml) (Invitrogen, Carlsbad, Calif.), in the presence of different amount of test compounds, for three days. [^3H]-thymidine (1 μCi/well) (PerkinElmer, Boston, Mass.) in PBS was then added to the B cell cultures for an additional 12 hrs before the incorporated radioactivity was separated by filtration with water through GF/B filters (Packard Bioscience, Meriden, Conn.) and measured by liquid scintillation counting with a TopCount (Packard Bioscience). […] See Table 2 for data related to compounds of the invention.

[2] = biological target: T1, PI3Kδ (p110δ/p85α) (Homo sapiens, UniProt O00329); assay: PI3Kδ scintillation proximity assay (enzyme assay A); type: biochemical; settings: 20 μM PIP2, 20 μM ATP, 4 nM PI3Kδ, 210 minutes, room temperature; read-out: IC50 data for PI3Kδ enzyme assay A (PI3Kd Enzyme Assay A)
T1 construct: purchased Millipore (Bedford, Mass.)
T1 sequence (O00329 whole entry): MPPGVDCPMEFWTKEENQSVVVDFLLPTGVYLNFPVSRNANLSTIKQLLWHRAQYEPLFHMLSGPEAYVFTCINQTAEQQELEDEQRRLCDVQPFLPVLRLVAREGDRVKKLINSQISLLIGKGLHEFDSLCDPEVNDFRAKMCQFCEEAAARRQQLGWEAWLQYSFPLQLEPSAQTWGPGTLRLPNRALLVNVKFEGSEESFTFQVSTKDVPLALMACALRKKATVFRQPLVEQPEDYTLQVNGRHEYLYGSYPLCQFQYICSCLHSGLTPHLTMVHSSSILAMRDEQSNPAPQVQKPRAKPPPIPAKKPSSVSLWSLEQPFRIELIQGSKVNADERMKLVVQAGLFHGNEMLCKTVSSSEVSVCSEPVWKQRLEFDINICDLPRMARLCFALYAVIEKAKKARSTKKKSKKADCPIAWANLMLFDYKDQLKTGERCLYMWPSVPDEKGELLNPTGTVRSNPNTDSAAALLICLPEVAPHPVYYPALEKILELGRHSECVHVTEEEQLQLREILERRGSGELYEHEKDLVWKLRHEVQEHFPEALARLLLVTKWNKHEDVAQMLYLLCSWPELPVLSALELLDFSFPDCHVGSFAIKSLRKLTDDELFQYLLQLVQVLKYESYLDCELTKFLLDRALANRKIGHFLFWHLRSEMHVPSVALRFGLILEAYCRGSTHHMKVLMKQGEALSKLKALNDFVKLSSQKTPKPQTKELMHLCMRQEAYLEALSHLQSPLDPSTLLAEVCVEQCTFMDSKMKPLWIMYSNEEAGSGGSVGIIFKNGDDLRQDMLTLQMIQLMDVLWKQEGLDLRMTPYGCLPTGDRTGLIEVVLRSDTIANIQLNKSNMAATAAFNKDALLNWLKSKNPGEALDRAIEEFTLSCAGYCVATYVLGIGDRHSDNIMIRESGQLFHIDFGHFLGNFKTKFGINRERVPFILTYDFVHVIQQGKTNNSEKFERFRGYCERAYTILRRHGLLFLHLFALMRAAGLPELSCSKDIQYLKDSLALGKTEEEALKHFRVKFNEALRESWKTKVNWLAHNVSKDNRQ
T1 sequence (P27986 whole entry partner): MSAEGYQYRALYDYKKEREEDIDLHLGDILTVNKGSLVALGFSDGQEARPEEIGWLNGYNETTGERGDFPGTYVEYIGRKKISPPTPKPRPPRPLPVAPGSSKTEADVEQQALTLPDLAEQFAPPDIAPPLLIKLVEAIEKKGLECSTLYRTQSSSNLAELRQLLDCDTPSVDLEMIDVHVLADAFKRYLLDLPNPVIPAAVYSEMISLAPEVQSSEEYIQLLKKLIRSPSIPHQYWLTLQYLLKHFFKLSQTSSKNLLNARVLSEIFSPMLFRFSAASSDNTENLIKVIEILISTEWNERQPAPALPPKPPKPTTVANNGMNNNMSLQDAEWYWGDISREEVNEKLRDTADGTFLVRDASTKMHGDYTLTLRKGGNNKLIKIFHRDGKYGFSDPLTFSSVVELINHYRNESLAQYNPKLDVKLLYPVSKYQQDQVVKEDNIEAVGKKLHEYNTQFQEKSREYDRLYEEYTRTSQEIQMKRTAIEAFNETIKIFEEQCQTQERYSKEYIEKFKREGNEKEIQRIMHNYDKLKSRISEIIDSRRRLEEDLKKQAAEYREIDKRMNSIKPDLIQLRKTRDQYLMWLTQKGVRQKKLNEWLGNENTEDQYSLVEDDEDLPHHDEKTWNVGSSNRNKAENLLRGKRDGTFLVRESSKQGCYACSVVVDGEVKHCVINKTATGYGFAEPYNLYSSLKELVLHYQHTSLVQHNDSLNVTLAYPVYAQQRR
Source text: Materials: [γ-^33P]ATP (10 mCi/mL) was purchased from PerkinElmer (Waltham, Mass.). Lipid kinase substrate, D-myo-Phosphatidylinositol 4,5-bisphosphate (PtdIns(4,5)P2)D (+)-sn-1,2-di-O-octanoylglyceryl, 3-O-phospho linked (PIP2), CAS 204858-53-7, was purchased from Echelon Biosciences (Salt Lake City, Utah). PI3Kδ (p110δ/p85α) was purchased from Millipore (Bedford, Mass.). ATP, MgCl2, DTT, EDTA, MOPS and CHAPS were purchased from Sigma-Aldrich (St. Louis, Mo.). Wheat Germ Agglutinin (WGA) YSi SPA Scintillation Beads was purchased from GE healthcare life sciences (Piscataway, N.J.).
Assay: The kinase reaction was conducted in polystyrene 384-well matrix white plate from Thermo Fisher Scientific in a final volume of 25 μL. Inhibitors were first diluted serially in DMSO and added to the plate wells before the addition of other reaction components. The final concentration of DMSO in the assay was 0.5%. The PI3K assays were carried out at room temperature in 20 mM MOPS, pH 6.7, 10 mM MgCl2, 5 mM DTT and CHAPS 0.03%. Reactions were initiated by the addition of ATP, the final reaction mixture consisted of 20 μM PIP2, 20 μM ATP, 0.2 μCi [γ-^33P] ATP, 4 nM PI3Kδ. Reactions were incubated for 210 minutes and terminated by the addition of 40 μL SPA beads suspended in quench buffer: 150 mM potassium phosphate pH 8.0, 20% glycerol. 25 mM EDTA, 400 μM ATP. The final concentration of SPA beads is 1.0 mg/mL. After the plate sealing, plates were shaken overnight at room temperature and centrifuged at 1800 rpm for 10 minutes, the radioactivity of the product was determined by scintillation counting on Topcount (PerkinElmer). IC50 determination was performed by fitting the curve of percent control activity versus the log of the inhibitor concentration using the GraphPad Prism 3.0 software.

`CC(Nc1ncnc2[nH]cnc12)c1nc2ccccn2c1-c1ccccc1F` (stereo not shown) [Example 19, N-{1-[3-(2-Fluorophenyl)imidazo[1,2-a]pyridin-2-yl]ethyl}-9H-purin-6-amine] was tested, and the IC50 [1] was under 500 nM and the IC50 [2] was 200 to 500 nM.
Work on `CC(Nc1ncnc2[nH]cnc12)c1nc2c(C(F)(F)F)cccn2c1-c1cccc(F)c1` (stereo not shown) [Example 15, N-{1-[3-(3-Fluorophenyl)-8-(trifluoromethyl)imidazo[1,2-a]pyridin-2-yl]ethyl}-9H-purin-6-amine bis(trifluoroacetate)] yielded an IC50 [2] of 990 to 2000 nM.
In the case of `CC(Nc1ncnc2[nH]cnc12)c1nc2ccccn2c1-c1ccc(F)cc1` (stereo not shown) [Example 24, N-{1-[3-(4-Fluorophenyl)imidazo[1,2-a]pyridin-2-yl]ethyl}-9H-purin-6-amine], the IC50 [2] is reported as 990 to 2000 nM.
For `Cc1cn2c(-c3cccc(F)c3)c(C(C)Nc3ncnc4[nH]cnc34)nc2s1` (stereo not shown) [Example 5, N-{1-[5-(3-Fluorophenyl)-2-methylimidazo[2,1-b][1,3]thiazol-6-yl]ethyl}-9H-purin-6-amine], the IC50 [1] was 2500 to 5000 nM and the IC50 [2] was over 2000 nM.
Work on `CC(Nc1ncnc2[nH]cnc12)c1nc2ccccn2c1-c1cccc(F)c1F` (stereo not shown) [Example 18, N-{1-[3-(2,3-Difluorophenyl)imidazo[1,2-a]pyridin-2-yl]ethyl}-9H-purin-6-amine] yielded an IC50 [1] of 1000 to 2500 nM and an IC50 [2] of 200 to 500 nM.
`CC(Nc1ncnc2[nH]cnc12)c1nc2sccn2c1-c1cc(F)cc(F)c1` (stereo not shown) [Example 3, N-{1-[5-(3,5-Difluorophenyl)imidazo[2,1-b][1,3]thiazol-6-yl]ethyl}-9H-purin-6-amine bis(trifluoroacetate)] gave an IC50 [2] of over 2000 nM.
Work on `CC(Nc1ncnc2[nH]cnc12)c1nn2ccccc2c1-c1cc(F)cc(F)c1` (stereo not shown) [Example 25, N-{1-[3-(3,5-Difluorophenyl)pyrazolo[1,5-a]pyridin-2-yl]ethyl}-9H-purin-6-amine trifluoroacetate] yielded an IC50 [1] of 500 to 1000 nM and an IC50 [2] of under 200 nM.
For `CC(Nc1ncnc2[nH]cnc12)c1nc2cccc(Cl)n2c1-c1cccc(F)c1` (stereo not shown) [Example 7, N-{1-[5-Chloro-3-(3-fluorophenyl)imidazo[1,2-a]pyridin-2-yl]ethyl}-9H-purin-6-amine tris(trifluoroacetate)], the IC50 [1] was under 500 nM and the IC50 [2] was under 200 nM.
With `Cc1cccc(-c2c(C(C)Nc3ncnc4[nH]cnc34)nc3ccccn23)c1` (stereo not shown) [Example 22, N-{1-[3-(3-Methylphenyl)imidazo[1,2-a]pyridin-2-yl]ethyl}-9H-purin-6-amine] the IC50 [2] was 500 to 990 nM.
`CC(Nc1ncnc2[nH]cnc12)c1nc2ccccn2c1-c1cccc(F)c1` (stereo not shown) [Example 2, N-{1-[3-(3-Fluorophenyl)imidazo[1,2-a]pyridin-2-yl]ethyl}-9H-purin-6-amine] showed an IC50 [1] of under 500 nM and an IC50 [2] of under 200 nM.
`CC(Nc1ncnc2[nH]cnc12)c1nc2cc(Cl)ccn2c1-c1cccc(F)c1` (stereo not shown) [Example 13, N-{1-[7-Chloro-3-(3-fluorophenyl)imidazo[1,2-a]pyridin-2-yl]ethyl}-9H-purin-6-amine] gave an IC50 [2] of under 200 nM.
For `CC(Nc1ncnc2[nH]cnc12)c1nc2c(C#N)cccn2c1-c1cccc(F)c1` (stereo not shown) [Example 16, 3-(3-Fluorophenyl)-2-[1-(9H-purin-6-ylamino)ethyl]imidazo[1,2-a]pyridine-8-carbonitrile bis(trifluoroacetate)], the IC50 [2] was 990 to 2000 nM.
`Cc1ccn2c(-c3cccc(F)c3)c(C(C)Nc3ncnc4[nH]cnc34)nc2c1` (stereo not shown) [Example 9, N-{1-[3-(3-Fluorophenyl)-7-methylimidazo[1,2-a]pyridin-2-yl]ethyl}-9H-purin-6-amine bis(trifluoroacetate)] gave an IC50 [1] of over 5000 nM and an IC50 [2] of over 2000 nM.
`Cc1ccccc1-c1c(C(C)Nc2ncnc3[nH]cnc23)nc2ccccn12` (stereo not shown) [Example 20, N-{1-[3-(2-Methylphenyl)imidazo[1,2-a]pyridin-2-yl]ethyl}-9H-purin-6-amine] showed an IC50 [2] of 990 to 2000 nM.
`Cc1ccc2nc(C(C)Nc3ncnc4[nH]cnc34)c(-c3cccc(F)c3)n2c1` (stereo not shown) [Example 8, N-{1-[3-(3-Fluorophenyl)-6-methylimidazo[1,2-a]pyridin-2-yl]ethyl}-9H-purin-6-amine bis(trifluoroacetate)] gave an IC50 [1] of 1000 to 2500 nM and an IC50 [2] of 500 to 990 nM.
Compound `Cc1cccn2c(-c3cccc(F)c3)c(C(C)Nc3ncnc4[nH]cnc34)nc12` (stereo not shown) [Example 10, N-{1-[3-(3-Fluorophenyl)-8-methylimidazo[1,2-a]pyridin-2-yl]ethyl}-9H-purin-6-amine bis(trifluoroacetate)] has an IC50 [1] of under 500 nM and an IC50 [2] of under 200 nM.
`CC(Nc1ncnc2[nH]cnc12)c1nc2c(Cl)cccn2c1-c1cccc(F)c1` (stereo not shown) [Example 11, N-{1-[8-Chloro-3-(3-fluorophenyl)imidazo[1,2-a]pyridin-2-yl]ethyl}-9H-purin-6-amine bis(trifluoroacetate)] showed an IC50 [1] of 500 to 1000 nM and an IC50 [2] of under 200 nM.
`Cc1cccc2nc(C(C)Nc3ncnc4[nH]cnc34)c(-c3cc(F)cc(F)c3)n12` (stereo not shown) [Example 1, N-{1-[3-(3,5-Difluorophenyl)-5-methylimidazo[1,2-a]pyridin-2-yl]ethyl}-9H-purin-6-amine] gave an IC50 [1] of under 500 nM and an IC50 [2] of under 200 nM.
`CC(Nc1ncnc2[nH]cnc12)c1nc2ccccn2c1-c1cc(F)cc(F)c1` (stereo not shown) [Example 23, N-{1-[3-(3,5-Difluorophenyl)imidazo[1,2-a]pyridin-2-yl]ethyl}-9H-purin-6-amine] showed an IC50 [1] of 1000 to 2500 nM and an IC50 [2] of 200 to 500 nM.
`CC(Nc1ncnc2[nH]cnc12)c1nc2ccc(Cl)cn2c1-c1cccc(F)c1` (stereo not shown) [Example 6, N-{1-[6-Chloro-3-(3-fluorophenyl)imidazo[1,2-a]pyridin-2-yl]ethyl}-9H-purin-6-amine bis(trifluoroacetate)] gave an IC50 [1] of under 500 nM and an IC50 [2] of under 200 nM.
In the case of `CC(Nc1ncnc2[nH]cnc12)c1nc2c(F)cccn2c1-c1cccc(F)c1` (stereo not shown) [Example 14, N-{1-[8-Fluoro-3-(3-fluorophenyl)imidazo[1,2-a]pyridin-2-yl]ethyl}-9H-purin-6-amine], the IC50 [1] is reported as 500 to 1000 nM and the IC50 [2] is reported as under 200 nM.
With `Cc1csc2nc(C(C)Nc3ncnc4[nH]cnc34)c(-c3cccc(F)c3)n12` (stereo not shown) [Example 4, N-{1-[5-(3-Fluorophenyl)-3-methylimidazo[2,1-b][1,3]thiazol-6-yl]ethyl}-9H-purin-6-amine bis(trifluoroacetate)] the IC50 [1] was 1000 to 2500 nM and the IC50 [2] was 500 to 990 nM.
`Cc1ccc(-c2c(C(C)Nc3ncnc4[nH]cnc34)nc3ccccn23)cc1` (stereo not shown) [Example 17, N-{1-[3-(4-Methylphenyl)imidazo[1,2-a]pyridin-2-yl]ethyl}-9H-purin-6-amine] was tested, and the IC50 [2] was 500 to 990 nM.
`CC(Nc1ncnc2[nH]cnc12)c1nc2ccccn2c1-c1cc(F)ccc1F` (stereo not shown) [Example 21, N-{1-[3-(2,5-Difluorophenyl)imidazo[1,2-a]pyridin-2-yl]ethyl}-9H-purin-6-amine] gave an IC50 [1] of 2500 to 5000 nM and an IC50 [2] of under 200 nM.
